# Entries after “also recorded” stand apart in the source; their conditions may differ.
# Assays:
# [1] = Comparative iron release profile, simulated gastrointestinal conditions, ICP-OES; format: physicochemical; conditions: sample equivalent to 30 mg elemental iron, HCl 0.1N then pH 6.8, 37°C
# Experimental: The release profile and bioavailability of the composition according to the invention were analysed and measured by comparison with iron sulphate (the preferred form for pharmacological treatment) using an in vitro system, under conditions simulating the gastrointestinal environment.
# The tests were conducted according to methods published in the international scientific literature and internally validated.
# For the measurement of the comparative release profile, amounts of the two test samples were first weighed, both equivalent to 30 mg of elemental iron. The samples were initially placed in contact with a solution of HCl (0.1N) and incubated at a temperature of 37±0.5° C. A solution of Na2HPO4 was then added to the samples to buffer the pH to a value of 6.8. Said conditions were maintained throughout the remainder of the experiment. To evaluate the release profile of the iron, the two samples were centrifuged at 10,000 rpm at pre-set time intervals such as 1, 2, 4, 6 and 24 h. At the end of centrifugation the samples were taken up and analysed to evaluate the iron release profiles. The iron determination analyses were conducted with the ICP-OES THERMO FISHER ICAP 6300.
# [2] = In vitro bioavailability study, dialysis membrane method with simulated buccal, gastric and intestinal digestion; format: in vitro ADME
# Experimental: The in vitro bioavailability study was conducted by the dialysis membrane method. Said method, by its nature, is based on the physicochemical characteristics of the environments wherein the desired substance passes from one compartment to the other, and takes no account of any active mechanisms or biological interaction. The method involves three successive simulated digestion stages: buccal digestion in the presence of amylase, gastric digestion in the presence of pepsin, and finally, intestinal digestion in the presence of pancreatin.
# In order to simulate buccal digestion, suitable amounts of the test samples were placed in contact with 10 mg of amylase and 1.5 mL of PBS at pH 6.9 (10^-3 M). The resulting mixtures were inserted into dialysis membranes (Spectrum Laboratories Inc., USA, MWCO: 12-14,000 Daltons), tightly closed at each end and immersed in vials containing PBS at pH 6.9. The samples were then incubated at a temperature of 37±0.5° C. for 5 minutes.
# After incubation, HCl (0.85N), pepsin and a solution of NaN3 (0.04% w/w) were added to the open membranes. The membranes were closed, placed in vials containing HCl (0.85N), and incubated at 37±0.5° C. for 2 h.
# After said 2 h period, a solution of NaHCO3 (0.8 M) and pancreatin was added. The closed membranes were placed in vials containing PBS at pH 7.0, and incubated at a temperature of 37±0.5° C. for a further 4 h.
# To evaluate the in vitro bioavailability of the iron, the solution contained in the vials was taken up after each digestion step, and the samples were analysed with an ICP-OES THERMO FISHER ICAP 6300.
# Bioavailability is defined as the percentage of iron recovered in the bioaccessible fraction after in vitro digestion, in relation to the original undigested sample, and calculated with the equation: (bioaccessible fraction/total content)×100%.
# [3] = Evaluation of organoleptic characteristics of the granulate vs iron fumarate (Example II); format: in vivo, human; conditions: score 1 (intolerable) to 5 (highly tolerable); one score per participant, 4 subjects; amount equivalent to 14 mg elemental iron
# Experimental: A portion of the granulate described in Example I and a portion of commercially available iron fumarate, both equivalent to 14 mg of elemental iron (100% of Nutrient Reference Value—EU Reg. 1169/2011) were weighed separately using known procedures.
# The following trial protocol was used to evaluate the organoleptic characteristics of the two samples compared.
# Each of the compositions listed in Table II above was tested on a group of 4 subjects. The inclusion criteria for admission to the test were solely ethical: the subjects had to be over the age of majority, healthy, and not suffering from any taste and/or iron metabolism alterations correlated with disorders and/or illnesses.
# Each subject independently tasted first one and then the other sample of the example, maintaining a suitable time interval (at least 2 hours) between one tasting and the next, and rinsing their mouth, so that the evaluation of each administration was not influenced by the previous one.
# On each tasting, the following parameters were evaluated: metallic odour and flavour, gastrointestinal tolerability, aftertaste, and staining of teeth, tongue and/or palate. […]
# [4] = in words; cited from earlier work
# [5] = in words; cited from earlier work; remark: listed apart in the source
compound,measurement,setting,value
O=S(=O)([O-])[O-].[Fe+2] [Ferrous sulphate],Iron released,[1]; 1 h,84.16 ± 1.07
same,Iron released,[1]; 2 h,85.22 ± 0.98
same,Iron released,[1]; 4 h,100.03 ± 0.20
same,"Bioaccessible fraction, buccal digestion","[2]; amylase, PBS pH 6.9, 37°C, 5 minutes",8.61 ± 0.73
same,"Bioaccessible fraction, intestinal digestion","[2]; pancreatin, NaHCO3, PBS pH 7.0, 37°C, 4 h",7.16 ± 0.41
same,"Bioaccessible fraction, gastric digestion","[2]; pepsin, HCl 0.85N, 37°C, 2 h",65.81 ± 1.39
"O=C([O-])/C=C/C(=O)[O-].[Fe+2] [Sample B, Iron fumarate]",Gastrointestinal tolerability,[3],Gastrointestinal tolerability: 5; also recorded: Gastrointestinal tolerability: 3
same,Water solubility compared with iron sulphate,[4],far less water-soluble than iron sulphate
same,Iron release compared with iron sulphate,[5],generically lower iron release than iron sulphate

# Source: patent publication US20230329308A1, “COMPOSITIONS COMPRISING A MINERAL SALT FOR ORAL USE” (DIFASS INTERNATIONAL S.P.A., priority 2020, published 2023)
